How the values were obtained:
Assay type in all cases: biochemical
[1] = biological target: Human PDE4B1 (Homo sapiens (Human), UniProt Q07343, S133E/S654A/S659A/S661A); test: PDE4B1 Scintillation Proximity Assay (SPA), inhibition of enzyme activity; details: Table 10, geometric mean of 2-9 determinations unless otherwise indicated, read-out: Human PDE4B FL
Summary of the method: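 His-tagged enzyme from baculovirus-infected insect cells, Ni-NTA purified. SPA with 1 μM cAMP (20 nM 3H-cAMP tracer) in 50 mM Tris pH 7.5, 1.3 mM MgCl2, 0.01% Brij, […] PDE4B enzyme for ~20% substrate conversion; 30 min at 25 °C, stopped with yttrium silicate beads, read after 8 h settling.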

[2] = biological target: Human PDE4A3 (Homo sapiens (Human), UniProt P27815); test: PDE4A3 Scintillation Proximity Assay (SPA), inhibition of enzyme activity; details: Table 10, geometric mean of 2-9 determinations unless otherwise indicated, read-out: Human PDE4A FL
Chain of Human PDE4A3 (P27815 other isoform, or with tags, fused parts or gaps): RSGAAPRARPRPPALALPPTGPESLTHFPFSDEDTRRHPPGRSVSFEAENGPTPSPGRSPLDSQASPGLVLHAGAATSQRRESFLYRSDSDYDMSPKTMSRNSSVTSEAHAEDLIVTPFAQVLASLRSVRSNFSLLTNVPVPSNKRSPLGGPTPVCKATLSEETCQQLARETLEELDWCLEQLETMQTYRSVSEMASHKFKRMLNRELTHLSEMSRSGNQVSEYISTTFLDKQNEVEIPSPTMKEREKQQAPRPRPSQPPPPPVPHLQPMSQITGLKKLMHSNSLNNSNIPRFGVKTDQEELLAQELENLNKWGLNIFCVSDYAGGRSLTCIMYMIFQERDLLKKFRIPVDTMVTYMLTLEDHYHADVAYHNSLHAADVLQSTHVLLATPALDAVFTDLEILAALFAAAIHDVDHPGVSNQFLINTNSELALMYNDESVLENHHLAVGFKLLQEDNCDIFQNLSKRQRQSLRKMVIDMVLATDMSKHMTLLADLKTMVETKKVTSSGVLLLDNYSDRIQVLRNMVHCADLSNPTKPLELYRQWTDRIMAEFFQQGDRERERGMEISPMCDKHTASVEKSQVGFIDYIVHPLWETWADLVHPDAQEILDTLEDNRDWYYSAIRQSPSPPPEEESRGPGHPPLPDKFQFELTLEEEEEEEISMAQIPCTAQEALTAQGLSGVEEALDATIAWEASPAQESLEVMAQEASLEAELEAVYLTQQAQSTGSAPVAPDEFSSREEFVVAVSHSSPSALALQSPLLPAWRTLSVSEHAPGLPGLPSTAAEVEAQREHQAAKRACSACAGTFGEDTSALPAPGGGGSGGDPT
Summary of the method: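 Recombinant human PDE4A3 expressed in insect cells, purified via Ni-NTA, anti-FLAG and size exclusion. SPA run 30 min at 25 °C in 50 mM Tris pH 7.5, 1.3 mM MgCl2, 0.01% Brij with 1 μM cAMP (20 nM 3H-cAMP), […], ~20% substrate conversion; stopped with yttrium silicate beads.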

[3] = biological target: human PDE4D3 (Homo sapiens (Human), UniProt Q08499); test: PDE4D3 Scintillation Proximity Assay (SPA), inhibition of enzyme activity; details: Table 10, geometric mean of 2-9 determinations unless otherwise indicated, read-out: Human PDE4D FL
Chain of human PDE4D3 (Q08499 186-808): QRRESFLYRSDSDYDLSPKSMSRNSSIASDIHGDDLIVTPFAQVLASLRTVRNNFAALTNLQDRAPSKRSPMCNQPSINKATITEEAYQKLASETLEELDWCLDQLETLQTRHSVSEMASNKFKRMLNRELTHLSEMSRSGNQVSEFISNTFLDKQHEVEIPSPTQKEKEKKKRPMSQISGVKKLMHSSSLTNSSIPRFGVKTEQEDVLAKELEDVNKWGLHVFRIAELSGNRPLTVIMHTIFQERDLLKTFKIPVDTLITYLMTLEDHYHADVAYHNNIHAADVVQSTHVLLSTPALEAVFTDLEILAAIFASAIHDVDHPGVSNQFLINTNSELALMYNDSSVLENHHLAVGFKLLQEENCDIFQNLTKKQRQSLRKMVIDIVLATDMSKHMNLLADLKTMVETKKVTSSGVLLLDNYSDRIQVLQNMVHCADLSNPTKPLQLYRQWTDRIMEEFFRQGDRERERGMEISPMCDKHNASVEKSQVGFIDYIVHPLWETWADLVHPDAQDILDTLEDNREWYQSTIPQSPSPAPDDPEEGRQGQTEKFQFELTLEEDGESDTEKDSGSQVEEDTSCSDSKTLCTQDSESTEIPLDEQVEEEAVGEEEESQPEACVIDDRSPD
Summary of the method: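 His-tagged human PDE4D3 (aa 50–672), expressed in insect cells, hydrolysed 1 μM cAMP (3H tracer plus cold) for 30 min at 25° C in 50 mM Tris pH 7.5, 1.3 mM MgCl2 and 0.01% Brij. Enzyme level was set for ~20% conversion. Product was read by yttrium silicate SPA beads after 8 h settling.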

[4] = biological target: Human PDE4C1 (Homo sapiens (Human), UniProt Q08493); test: PDE4C1 Scintillation Proximity Assay (SPA), inhibition of enzyme activity; details: Table 10, geometric mean of 2-9 determinations unless otherwise indicated, read-out: Human PDE4C FL
Chain of Human PDE4C1 (Q08493 2-712): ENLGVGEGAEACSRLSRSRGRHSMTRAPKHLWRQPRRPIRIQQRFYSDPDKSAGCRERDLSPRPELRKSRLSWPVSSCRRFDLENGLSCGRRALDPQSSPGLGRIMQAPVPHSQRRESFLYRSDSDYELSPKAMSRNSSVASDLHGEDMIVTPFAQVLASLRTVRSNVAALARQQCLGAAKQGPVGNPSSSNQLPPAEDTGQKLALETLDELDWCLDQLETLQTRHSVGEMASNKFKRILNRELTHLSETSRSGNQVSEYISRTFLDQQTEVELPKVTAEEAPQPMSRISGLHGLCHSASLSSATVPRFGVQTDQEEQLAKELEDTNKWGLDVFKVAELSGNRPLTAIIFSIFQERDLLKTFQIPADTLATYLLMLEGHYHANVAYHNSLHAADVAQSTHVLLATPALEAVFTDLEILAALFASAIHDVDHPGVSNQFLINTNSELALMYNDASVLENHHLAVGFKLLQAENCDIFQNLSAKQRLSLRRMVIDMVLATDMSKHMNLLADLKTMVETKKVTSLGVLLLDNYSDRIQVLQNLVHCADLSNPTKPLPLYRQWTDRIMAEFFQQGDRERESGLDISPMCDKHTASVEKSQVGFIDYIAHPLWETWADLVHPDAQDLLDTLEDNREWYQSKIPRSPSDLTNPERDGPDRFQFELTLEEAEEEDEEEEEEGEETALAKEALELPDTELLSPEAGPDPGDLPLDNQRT
Summary of the method: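 Recombinant insect-cell-expressed human PDE4C1 […] in 50 mM Tris pH 7.5, 1.3 mM MgCl2, 0.01% Brij with 1 μM cAMP (3H-cAMP tracer), ~20% substrate conversion, inhibitor concentration range. Incubated 30 min at 25° C; stopped with yttrium silicate SPA beads, read by scintillation after 8 h settling.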

Chain of Human PDE4B1 (Q07343 122-736 S133E/S654A/S659A/S661A): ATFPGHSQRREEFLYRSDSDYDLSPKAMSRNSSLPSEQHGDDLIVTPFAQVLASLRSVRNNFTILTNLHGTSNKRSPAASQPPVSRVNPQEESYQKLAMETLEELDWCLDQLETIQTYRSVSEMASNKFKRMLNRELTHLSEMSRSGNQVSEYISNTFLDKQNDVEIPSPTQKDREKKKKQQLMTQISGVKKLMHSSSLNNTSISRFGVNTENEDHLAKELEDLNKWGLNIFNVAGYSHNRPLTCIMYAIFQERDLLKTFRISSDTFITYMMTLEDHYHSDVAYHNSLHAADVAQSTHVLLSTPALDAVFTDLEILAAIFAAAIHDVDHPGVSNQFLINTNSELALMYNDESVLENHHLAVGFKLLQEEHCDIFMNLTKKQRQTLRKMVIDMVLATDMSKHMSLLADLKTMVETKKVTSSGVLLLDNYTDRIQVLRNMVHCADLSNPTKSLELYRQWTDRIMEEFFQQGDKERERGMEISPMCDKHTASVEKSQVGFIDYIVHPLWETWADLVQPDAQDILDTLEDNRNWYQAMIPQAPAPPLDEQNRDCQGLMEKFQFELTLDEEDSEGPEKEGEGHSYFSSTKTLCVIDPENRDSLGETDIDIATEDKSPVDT

Row | IC50 [1] [nM] | IC50 [2] [nM] | IC50 [3] [nM] | IC50 [4] [nM] | SMILES
1 | 1890 | 345 | 1920 | 649 | CCCc1cnc(N2CCn3c(c(-c4ccc(Cl)cc4)c4ncccc43)C2=O)nc1 [Example 95, 10-(4-Chlorophenyl)-8-(5-propylpyrimidin-2-yl)-7,8-dihydropyrido[2′,3′:4,5]pyrrolo[1,2-a]pyrazin-9(6H)-one]
2 | 98.4 | 87.5 | 137 | 52.8 | COCCCCCCN1CCn2c(c(-c3ccc(Cl)cc3)c3ncccc32)C1=O [Example 96, 10-(4-Chlorophenyl)-8-(6-methoxyhexyl)-7,8-dihydropyrido[2′,3′:4,5]pyrrolo[1,2-a]pyrazin-9(6H)-one]
3 | 1040 | 287 | 1130 | 526 | CCCc1ccnc(N2CCn3c(c(-c4ccc(Cl)cc4)c4ncccc43)C2=O)n1 [Example 97, 10-(4-Chlorophenyl)-8-(4-propylpyrimidin-2-yl)-7,8-dihydropyrido[2′,3′:4,5]pyrrolo[1,2-a]pyrazin-9(6H)-one]

The next lines start with the compound.

Row | SMILES | IC50 [1] [nM] | IC50 [2] [nM] | IC50 [3] [nM] | IC50 [4] [nM]
4 | Cc1nc(-c2c3n(c4cccnc24)CCN(C2CC2)C3=O)cs1 [Example 88, 8-Cyclopropyl-10-(2-methylthiazol-4-yl)-7,8-dihydropyrido[2′,3′:4,5]pyrrolo[1,2-a]pyrazin-9(6H)-one] | 11000 | 8080 | 16100 | 8420
5 | Cn1cc(-c2c3n(c4cccnc24)CCN(C2CC2)C3=O)cn1 [Example 91, 8-Cyclopropyl-10-(1-methyl-1H-pyrazol-4-yl)-7,8-dihydropyrido[2′,3′:4,5]pyrrolo[1,2-a]pyrazin-9(6H)-one] | 2760 | 889 | 4450 | 2360
6 | Cn1ncc(Cl)c1-c1c2n(c3cccnc13)CCN(C1CC1)C2=O [Example 93, 10-(4-Chloro-1-methyl-1H-pyrazol-5-yl)-8-cyclopropyl-7,8-dihydropyrido[2′,3′:4,5]pyrrolo[1,2-a]pyrazin-9(6H)-one] | > 24700 | 24000 | > 30000 | 6970
7 | CS(=O)(=O)c1cccc(-c2c3n(c4cccnc24)CCN(C2CC2)C3=O)c1 [Example 94, 8-Cyclopropyl-10-(3-(methylsulfonyl)phenyl)-7,8-dihydropyrido[2′,3′:4,5]pyrrolo[1,2-a]pyrazin-9(6H)-one] | 467 | 720 | 858 | 1050

From US11472805B2, “Tricyclic compounds and their use as phosphodiesterase inhibitors” (Pfizer Inc., priority 2015, dated 2022)
